From ChEMBL document CHEMBL1201862, “PubChem BioAssay data set” (2004)
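Where inhibition never reached the appropriate level, the endpoint shown equals the highest concentration tested. Otherwise, values were interpolated linearly from a five-concentration, 48-hour dose response in 96-well plates. GI50 is the concentration that inhibits growth by half.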 The source made the active and inactive calls. Rule as the data show it: active = GI50 up to about 1.1 µM and inactive = higher.

Tests used:
Test in all cases: growth of human tumour cells (NCI), 48 h
786-0 = system: 786-0
A498 = system: A498
CAKI-1 = system: CAKI-1
HCT-116 = system: HCT-116
HOP-92 = system: HOP-92
Hs-578T = system: Hs-578T
MCF7 = system: MCF7
MDA-N = system: MDA-N
MOLT-4 = system: MOLT-4
NCI-H226 = system: NCI-H226
NCI-H23 = system: NCI-H23
NCI-H522 = system: NCI-H522
PC-3 = system: PC-3
RPMI-8226 = system: RPMI-8226
SR = system: SR
SW-620 = system: SW-620
TK-10 = system: TK-10
U-251 = system: U-251
UACC-62 = system: UACC-62
UO-31 = system: UO-31

Structure (SMILES) | GI50 (786-0) | GI50 (A498) | GI50 (CAKI-1) | GI50 (HCT-116) | GI50 (HOP-92) | GI50 (Hs-578T) | GI50 (MCF7) | GI50 (MDA-N) | GI50 (MOLT-4) | GI50 (NCI-H226) | GI50 (NCI-H23) | GI50 (NCI-H522) | GI50 (PC-3) | GI50 (RPMI-8226) | GI50 (SR) | GI50 (SW-620) | GI50 (TK-10) | GI50 (U-251) | GI50 (UACC-62) | GI50 (UO-31)
CC(C)(C)C1=NC(=P(c2ccccc2)(c2ccccc2)c2ccccc2)C(=O)O1 | > 100 µM (inactive) | > 100 µM (inactive) | > 100 µM (inactive) | > 100 µM (inactive) | > 100 µM (inactive) | > 100 µM (inactive) | > 100 µM (inactive) | > 100 µM (inactive) | > 100 µM (inactive) | > 100 µM (inactive) | > 100 µM (inactive) | 20.2 µM (inactive) | > 100 µM (inactive) | > 100 µM (inactive) | > 100 µM (inactive) | > 100 µM (inactive) | > 100 µM (inactive) | > 100 µM (inactive) | > 100 µM (inactive) | > 100 µM (inactive)
COc1cc2c(cc1[N+](=O)[O-])C(=O)C(Br)(Br)CCC2 | 1.26 µM (inactive) | 15.3 µM (inactive) | 2.92 µM (inactive) | 0.697 µM (active) | 4.46 µM (inactive) | 5.75 µM (inactive) | 2.22 µM (inactive) | 3.09 µM (inactive) | 0.354 µM (active) | 3.47 µM (inactive) | 2.79 µM (inactive) | 0.771 µM (active) | 5 µM (inactive) | 1.8 µM (inactive) | 0.743 µM (active) | 1.88 µM (inactive) | 2.54 µM (inactive) | 2.23 µM (inactive) | 3.43 µM (inactive) | 1.61 µM (inactive)
CCOC(=O)C12CCC(c3c(C)cccc3C)(O1)C(C(=O)OC)=C2C(=O)OC (stereo not given) | 3.08 µM (inactive) | 2.14 µM (inactive) | > 5.6 µM (inactive) | 2.14 µM (inactive) | 4.24 µM (inactive) | 3.52 µM (inactive) | 1.3 µM (inactive) | 0.484 µM (active) | 4.74 µM (inactive) | 5.52 µM (inactive) | 3.4 µM (inactive) | 5.38 µM (inactive) | 2.09 µM (inactive) | 3.92 µM (inactive) | 0.646 µM (active) | 2.07 µM (inactive) | > 10 µM (inactive) | 3.76 µM (inactive) | 4.73 µM (inactive) | > 10 µM (inactive)
CC(=C/C=C/C=C(C)\C=C\C=C(\C)C(=O)O)/C=C/C=C(/C)C(=O)O | > 100 µM (inactive) | > 100 µM (inactive) | > 100 µM (inactive) | > 100 µM (inactive) | > 100 µM (inactive) | > 100 µM (inactive) | > 100 µM (inactive) | > 100 µM (inactive) | > 100 µM (inactive) | > 100 µM (inactive) | > 100 µM (inactive) | > 100 µM (inactive) | > 100 µM (inactive) | > 100 µM (inactive) | > 100 µM (inactive) | > 100 µM (inactive) | > 100 µM (inactive) | > 100 µM (inactive) | > 100 µM (inactive) | > 100 µM (inactive)
CN(O)C(=O)c1cccc(Cl)c1 | > 100 µM (inactive) | > 100 µM (inactive) | > 100 µM (inactive) | > 100 µM (inactive) | > 100 µM (inactive) | > 100 µM (inactive) | > 100 µM (inactive) | > 100 µM (inactive) | 51.2 µM (inactive) | > 100 µM (inactive) | > 100 µM (inactive) | > 100 µM (inactive) | > 100 µM (inactive) | > 100 µM (inactive) | 32.7 µM (inactive) | > 100 µM (inactive) | > 100 µM (inactive) | > 100 µM (inactive) | > 100 µM (inactive) | > 100 µM (inactive)
Cc1ccc(Nc2cc(=O)[nH]c(=S)[nH]2)cc1 | > 100 µM (inactive) | > 100 µM (inactive) | > 100 µM (inactive) | > 100 µM (inactive) | > 100 µM (inactive) | > 100 µM (inactive) | > 100 µM (inactive) | > 100 µM (inactive) | > 100 µM (inactive) | > 100 µM (inactive) | > 100 µM (inactive) | > 100 µM (inactive) | > 100 µM (inactive) | > 100 µM (inactive) | > 100 µM (inactive) | > 100 µM (inactive) | > 100 µM (inactive) | > 100 µM (inactive) | > 100 µM (inactive) | > 100 µM (inactive)
O=C(O)c1cc(CCc2cc(O)ccc2O)ccc1O | > 100 µM (inactive) | > 100 µM (inactive) | > 100 µM (inactive) | > 100 µM (inactive) | > 100 µM (inactive) | > 100 µM (inactive) | > 100 µM (inactive) | 14 µM (inactive) | 56.6 µM (inactive) | > 100 µM (inactive) | > 100 µM (inactive) | > 100 µM (inactive) | > 100 µM (inactive) | > 100 µM (inactive) | > 100 µM (inactive) | 39.2 µM (inactive) | > 100 µM (inactive) | > 100 µM (inactive) | > 100 µM (inactive) | > 100 µM (inactive)
CCC(C)C1(O)OC2CC3(C)OC(=CC3=O)/C(C)=C\C3OC(=O)C1(C)C32 (stereo not given) | 16.6 µM (inactive) | 25.2 µM (inactive) | 14.4 µM (inactive) | 6.47 µM (inactive) | 8.75 µM (inactive) | 30.5 µM (inactive) | 9.77 µM (inactive) | 1.73 µM (inactive) | 12.3 µM (inactive) | 25.9 µM (inactive) | 5.53 µM (inactive) | 3.92 µM (inactive) | 37.2 µM (inactive) | 7.1 µM (inactive) | 5 µM (inactive) | 3.37 µM (inactive) | 21 µM (inactive) | 27.5 µM (inactive) | 14.3 µM (inactive) | 17.8 µM (inactive)
Nc1nc(Cl)cc(Nc2ccc3c(c2)CCC3)n1 | 52.2 µM (inactive) | > 100 µM (inactive) | 30.1 µM (inactive) | 43.8 µM (inactive) | > 100 µM (inactive) | > 100 µM (inactive) | > 100 µM (inactive) | > 100 µM (inactive) | 2.45 µM (inactive) | > 100 µM (inactive) | > 100 µM (inactive) | 45.4 µM (inactive) | 61.2 µM (inactive) | 19.7 µM (inactive) | 17.4 µM (inactive) | 85.1 µM (inactive) | 65 µM (inactive) | > 100 µM (inactive) | > 100 µM (inactive) | > 100 µM (inactive)
O=C1N(CN2CCOCC2)CN(CN2CCOCC2)C(=O)N1Cc1ccc(CN2C(=O)N(CN3CCOCC3)CN(CN3CCOCC3)C2=O)cc1 | 28.8 µM (inactive) | > 100 µM (inactive) | 38.3 µM (inactive) | 33.6 µM (inactive) | 52 µM (inactive) | 22 µM (inactive) | 38.9 µM (inactive) | 31.7 µM (inactive) | 35.2 µM (inactive) | > 100 µM (inactive) | 34.4 µM (inactive) | > 100 µM (inactive) | 45.6 µM (inactive) | 22.7 µM (inactive) | 46.9 µM (inactive) | 43 µM (inactive) | > 100 µM (inactive) | 44.9 µM (inactive) | 31.2 µM (inactive) | 44.4 µM (inactive)
CCCCCCCCCCCCCC(=O)N(CCCCCCCCC)CC(O)C(O)C(OC1OC(CO)C(O)C(O)C1O)C(O)CO (stereo not given) | 17.1 µM (inactive) | 21.2 µM (inactive) | 16.9 µM (inactive) | 17.4 µM (inactive) | 17.3 µM (inactive) | 22.5 µM (inactive) | 36.5 µM (inactive) | 21.6 µM (inactive) | 24.4 µM (inactive) | 18.7 µM (inactive) | 19.7 µM (inactive) | 23 µM (inactive) | 21.8 µM (inactive) | 29.9 µM (inactive) | 25.6 µM (inactive) | 19.9 µM (inactive) | 18.6 µM (inactive) | 22.5 µM (inactive) | 20.7 µM (inactive) | 19.1 µM (inactive)
O=C1CS[C@@](CC(c2ccc(Cl)cc2)c2ccc(Cl)cc2)(c2ccc(Cl)cc2)N1 | 9.66 µM (inactive) | 11.6 µM (inactive) | 19.2 µM (inactive) | 9.59 µM (inactive) | 15.3 µM (inactive) | 38.2 µM (inactive) | 4.18 µM (inactive) | 8.13 µM (inactive) | 3.32 µM (inactive) | 9.75 µM (inactive) | 9.75 µM (inactive) | 6.28 µM (inactive) | 4.68 µM (inactive) | 5.05 µM (inactive) | 4.24 µM (inactive) | 18.2 µM (inactive) | 51.3 µM (inactive) | 10.2 µM (inactive) | 12.5 µM (inactive) | 25.1 µM (inactive)
